Results published in ChEMBL document CHEMBL1155382, “Bisleuconothine A, an eburnane-aspidosperma bisindole alkaloid from Leuconotis griffithii” (Bioorg Med Chem Lett, 2010).

How the values were obtained:
A549 = test: Inhibition of cell growth in human A549 cells; type: functional, cell-based
HCT-116 [1] = test: Inhibition of cell growth in human HCT116 cells; type: functional, cell-based
HCT-116 [2] = test: Cell cycle arrest in human HCT116 cells assessed as accumulation at G1 phase at 10 uM after 24 hrs; type: functional
MCF7 = test: Inhibition of cell growth in human MCF7 cells; type: functional, cell-based
HCT-116 [3] = test: Cell cycle arrest in human HCT116 cells assessed as accumulation at G1 phase at 20 uM after 24 hrs; type: functional
HCT-116 [4] = test: Cell cycle arrest in human HCT116 cells assessed as accumulation at G1 phase at 5 uM after 24 hrs; type: functional
HL-60 = test: Inhibition of cell growth in human HL60 cells; type: functional, cell-based

IC50 (A549): 7 µM | IC50 (HCT-116 [1]): 5.7 µM | IC50 (MCF7): 9.2 µM | IC50 (HL-60): 11 µM
SMILES: CC[C@@]12CCCN3CCc4c(n(c5ccccc45)[C@H](c4ccc(O)c5c4N[C@@H]4CC[C@@]6(CC)CCCN7CC[C@@]54[C@H]76)C1)[C@H]32 [BISLEUCONOTHINE A]
Activity (HCT-116 [2]): 75.1% | Activity (HCT-116 [3]): 79.5% | Activity (HCT-116 [4]): 72%
